Measurements: article PMC6445327, “Inhibition of the α-carbonic anhydrase from Vibrio cholerae with amides and sulfonamides incorporating imidazole moieties” (Journal of Enzyme Inhibition and Medicinal Chemistry, 2017)
Values after ≈ are worked out from the molar mass of the structure shown.

Assays:
[1] = tested on: V. cholerae O1 reference strain ATCC14103; test: In vitro antibacterial assay (broth dilution); assay type: cell-based, Vibrio cholerae; details: for concentration inhibiting bacterial growth: 37 °C, 18–20 h, tryptic soy broth
[2] = tested on: V. cholerae O1 strain ISS-Vc014 (multiresistant clinical isolate); test: In vitro antibacterial assay (broth dilution); assay type: cell-based, Vibrio cholerae; details: for concentration inhibiting bacterial growth: 37 °C, 18–20 h, tryptic soy broth
[3] = molecular target: T1, hCA I (Homo sapiens, UniProt P00915); test: Stopped-flow CO2 hydration assay, CA inhibition; assay type: biochemical
T1 construct: made in house
Procedure: (§1) The uncatalyzed rates were determined in the same manner and subtracted from the total observed rates. Stock solutions of inhibitor (0.01 mM) were prepared in distilled–deionised water with 5% DMSO and dilutions up to 0.1 nM were done thereafter with the assay buffer. The Inhibition constant (KI) was obtained by considering the classical Michaelis–Menten equation, which has been fitted by non-linear least squares by using PRISM 3. All CA isozymes used in the experiments were purified recombinant proteins obtained as reported earlier by our group.

[4] = molecular target: T2, hCA II (Homo sapiens, UniProt P00918); test: Stopped-flow CO2 hydration assay, CA inhibition; assay type: biochemical
T2 construct: made in house
Procedure: as §1

[5] = molecular target: VchCA (Vibrio cholerae α-carbonic anhydrase) (Vibrio cholerae, UniProt Q9KMP6); test: biochemical
Procedure: as §1

[6] = tested on: two V. cholerae O1 strains (ATCC14103 and ISS-Vc014); test: In vitro antibacterial assay (broth dilution), strain not distinguished; assay type: cell-based, Vibrio cholerae; details: up to 3 mg ml^−1 (the limit of solubility)
[7] = Limit of solubility in the antibacterial test; details: 37 °C

T1 sequence (P00915 whole entry): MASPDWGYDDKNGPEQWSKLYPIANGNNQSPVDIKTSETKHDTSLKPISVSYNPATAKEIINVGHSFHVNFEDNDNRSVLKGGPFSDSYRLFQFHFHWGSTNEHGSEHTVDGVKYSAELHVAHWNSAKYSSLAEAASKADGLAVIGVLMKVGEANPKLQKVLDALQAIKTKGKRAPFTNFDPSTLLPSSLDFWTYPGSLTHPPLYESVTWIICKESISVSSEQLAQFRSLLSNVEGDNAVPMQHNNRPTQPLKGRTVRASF
Chain of VchCA (Vibrio cholerae α-carbonic anhydrase) (Q9KMP6 entry or part of it): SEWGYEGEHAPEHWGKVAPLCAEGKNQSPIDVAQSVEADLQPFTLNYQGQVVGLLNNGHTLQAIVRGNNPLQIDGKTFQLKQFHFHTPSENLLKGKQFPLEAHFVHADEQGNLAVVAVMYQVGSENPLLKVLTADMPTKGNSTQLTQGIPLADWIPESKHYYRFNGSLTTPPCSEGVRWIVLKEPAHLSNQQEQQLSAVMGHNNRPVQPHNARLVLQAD

Row | SMILES | concentration inhibiting bacterial growth [1] | concentration inhibiting bacterial growth [2] [mg/mL] | Ki [3] [µM] | Ki [4] [µM] | Ki [5] [µM] | melting point [°C] | activity compared to ampicillin [1] | activity compared to ampicillin [2] | inhibition of the bacterial growth at higher concentrations [6] | solubility [7] [µg/mL]
1 | CC1(C)S[C@@H]2[C@H](NC(=O)[C@H](N)c3ccccc3)C(=O)N2[C@H]1C(=O)O [Ampicillin, reference compound] | higher than 0.01 mg ml^−1 | 1.0 | – | – | – | – | – | – | – | –
2 | CS(=O)(=O)NCCCn1ccnc1 [Compound 1, N-(3-(1H-imidazol-1-yl)propyl)methanesulfonamide] | – | – | 0.387 | > 10 | 0.0109 | 89 to 91 | – | – | – | –
3 | O=S(=O)(NCCCn1ccnc1)c1ccc(F)cc1 [Compound 2, N-(3-(1H-imidazol-1-yl)propyl)-4-fluorobenzenesulfonamide] | 2 mg/mL | 2 | 1.7 | > 10 | 0.0085 | 121 to 123 | less active | comparable activity | – | –
4 | O=S(=O)(NCCCn1ccnc1)c1ccc(C(F)(F)F)cc1 [Compound 3, N-(3-(1H-imidazol-1-yl)propyl)-4-(trifluoromethyl)benzenesulfonamide] | – | – | > 50 | > 50 | 0.0064 | 127 to 128 | – | – | – | –
5 | O=[N+]([O-])c1ccc(S(=O)(=O)NCCCn2ccnc2)cc1 [Compound 4, N-(3-(1H-imidazol-1-yl)propyl)-4-nitrobenzenesulfonamide] | – | – | > 50 | > 50 | 0.0062 | 140 to 141 | – | – | – | –
6 | CC(=O)NCCCn1ccnc1 [Compound 5, N-(3-(1H-imidazol-1-yl)propyl)acetamide] | – | – | > 50 | > 50 | 0.0392 | – | – | – | – | –
7 | O=C(NCCCn1ccnc1)c1ccc(F)cc1 [Compound 6, N-(3-(1H-imidazol-1-yl)propyl)-4-fluorobenzamide] | – | – | > 50 | > 50 | 0.0091 | 70 to 72 | – | – | – | –
8 | O=C(NCCCn1ccnc1)c1ccc(C(F)(F)F)cc1 [Compound 7, N-(3-(1H-imidazol-1-yl)propyl)-4-(trifluoromethyl)benzamide] | – | – | 2.55 | > 10 | 0.0104 | 106 to 107 | – | – | not active | 3000 (≈ 10.1 mM)
9 | O=C(NCCCn1ccnc1)c1ccc([N+](=O)[O-])cc1 [Compound 8, N-(3-(1H-imidazol-1-yl)propyl)-4-nitrobenzamide] | – | – | 1.73 | > 10 | 0.011 | 152 to 154 | – | – | partially active | 3000 (≈ 10.9 mM)
10 | O=C(NCCCn1ccnc1)c1ccc(-c2ccccc2)cc1 [Compound 9, N-(3-(1H-imidazol-1-yl)propyl)-[1,1′-biphenyl]-4-carboxamide] | – | – | > 50 | > 50 | 0.0054 | – | – | – | – | –
11 | O=C(NCCCc1ccccc1)c1ccc([N+](=O)[O-])cc1 [Compound 10, 4-Nitro-N-(3-phenylpropyl)benzamide] | – | – | > 50 | > 50 | 0.0078 | 95 to 97 | – | – | – | –
